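GI50 is the concentration that inhibits growth by half. TGI is the concentration that stops growth completely.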
What was measured:
Assay in all cases: growth of human tumour cells (NCI), 384-well format
PC-3 prostate = system: PC-3 prostate
HCT-116 colon = system: HCT-116 colon
SF-268 CNS = system: SF-268 CNS
SW-620 colon = system: SW-620 colon
RPMI-8226 leukemia = system: RPMI-8226 leukemia
ACHN renal = system: ACHN renal
HCT-15 colon = system: HCT-15 colon
CCRF-CEM leukemia = system: CCRF-CEM leukemia
COLO 205 colon = system: COLO 205 colon
M14 melanoma = system: M14 melanoma
SK-MEL-2 melanoma = system: SK-MEL-2 melanoma
LOX IMVI melanoma = system: LOX IMVI melanoma
BT-549 breast = system: BT-549 breast
SK-MEL-28 melanoma = system: SK-MEL-28 melanoma
OVCAR-3 ovarian = system: OVCAR-3 ovarian
DU-145 prostate = system: DU-145 prostate
SNB-19 CNS = system: SNB-19 CNS
HOP-92 NSCLC = system: HOP-92 NSCLC
U251 glioblastoma = system: U251 glioblastoma
RXF 393 renal = system: RXF 393 renal
OVCAR-5 ovarian = system: OVCAR-5 ovarian
MCF7 breast = system: MCF7 breast
NCI-H23 lung = system: NCI-H23 lung
KM12 colon = system: KM12 colon
MDA-MB-231 breast = system: MDA-MB-231 breast
UACC-62 melanoma = system: UACC-62 melanoma
OVCAR-8 ovarian = system: OVCAR-8 ovarian
NCI/ADR-RES ovarian = system: NCI/ADR-RES ovarian

CCN1[C@@H](C(=O)NC23CCC(C(=O)O)(CC2)CC3)[C@H](c2cccc(Cl)c2F)[C@]2(C(=O)Nc3cc(Cl)ccc32)C12CCCCC2
GI50 (PC-3 prostate): 2880 nM
TGI (PC-3 prostate): 9400 nM
GI50 (HCT-116 colon): 30.3 nM
TGI (HCT-116 colon): 1490 nM
GI50 (SF-268 CNS): 2340 nM
TGI (SF-268 CNS): 6800 nM
GI50 (SW-620 colon): 3790 nM
TGI (SW-620 colon): 13400 nM
GI50 (RPMI-8226 leukemia): 1260 nM
TGI (RPMI-8226 leukemia): 2510 nM
GI50 (ACHN renal): 19.4 nM
TGI (ACHN renal): 390 nM
GI50 (HCT-15 colon): 2660 nM
TGI (HCT-15 colon): 10100 nM
GI50 (CCRF-CEM leukemia): 1420 nM
TGI (CCRF-CEM leukemia): 2750 nM
GI50 (COLO 205 colon): 2200 nM
TGI (COLO 205 colon): 4460 nM
GI50 (M14 melanoma): 35 nM
TGI (M14 melanoma): 2370 nM
GI50 (SK-MEL-2 melanoma): 638 nM
TGI (SK-MEL-2 melanoma): 2160 nM
GI50 (LOX IMVI melanoma): 323 nM
TGI (LOX IMVI melanoma): 1840 nM
GI50 (BT-549 breast): 1930 nM
TGI (BT-549 breast): 6160 nM
GI50 (SK-MEL-28 melanoma): 2760 nM
TGI (SK-MEL-28 melanoma): 7420 nM
GI50 (OVCAR-3 ovarian): 1440 nM
TGI (OVCAR-3 ovarian): 2900 nM
GI50 (DU-145 prostate): 3390 nM
TGI (DU-145 prostate): 12300 nM
GI50 (SNB-19 CNS): 3090 nM
TGI (SNB-19 CNS): 12800 nM
GI50 (HOP-92 NSCLC): 1770 nM
TGI (HOP-92 NSCLC): 4430 nM
GI50 (U251 glioblastoma): 3070 nM
TGI (U251 glioblastoma): 11500 nM
GI50 (RXF 393 renal): 1020 nM
TGI (RXF 393 renal): 2560 nM
GI50 (OVCAR-5 ovarian): 1920 nM
TGI (OVCAR-5 ovarian): 4660 nM
GI50 (MCF7 breast): 26.9 nM
TGI (MCF7 breast): 1120 nM
GI50 (NCI-H23 lung): 1490 nM
TGI (NCI-H23 lung): 3950 nM
GI50 (KM12 colon): 2870 nM
TGI (KM12 colon): 9120 nM
GI50 (MDA-MB-231 breast): 3130 nM
TGI (MDA-MB-231 breast): 14200 nM
GI50 (UACC-62 melanoma): < 10 nM
TGI (UACC-62 melanoma): 364 nM
GI50 (OVCAR-8 ovarian): 3000 nM
TGI (OVCAR-8 ovarian): 11400 nM
GI50 (NCI/ADR-RES ovarian): 3640 nM
TGI (NCI/ADR-RES ovarian): 13600 nM

Reference: PubChem BioAssay (NCI)
